In PMC10287555, “Camonsertib in DNA damage response-deficient advanced solid tumors: phase 1 trial results” (Nature Medicine, 2023):
Entries after “also recorded” stand apart in the source; their conditions may differ.

How the values were obtained:
[1] = Treatment-related adverse events (TRAEs), TRESR; assay type: in vivo, human
Experimental: (§1) Tolerability and safety of camonsertib was evaluated by assessment of AEs, TEAEs, serious adverse events (SAEs), DLTs, concomitant medications and procedures, physical examinations, vital sign measurements, clinical safety laboratory evaluations (hematology, chemistry and urinalysis), ECOG performance status scores and electrocardiograms.
All safety and efficacy endpoints were summarized with descriptive statistics. Safety data were summarized using the safety population, which consisted of all patients who received at least one dose of RP-3500. The DLT rate was based on the DLT-evaluable population, which included those patients in dose-escalation cohorts (M1a and M1b only) receiving ≥80% of planned doses of camonsertib, who completed all required safety evaluations and were observed through the end of cycle 1 or patients who experienced a DLT. Due to the different number of dose levels expected and the exploratory nature of the phase 1 study, anti-tumor activity parameters were primarily based on patients who received ≥1 dose of RP-3500 and had ≥1 post-baseline tumor assessment by RECIST 1.1 and/or GCIG CA-125 or PCWG3 PSA criteria, with an initial dose level of >100 mg d^−1 (dose level predicted to achieve efficacious exposure), as defined in the statistical analysis plan. Additional subgroups based on tumor types or genotypes of interest were based on this efficacy analysis set. […] Patients were, therefore, enrolled in the study and endpoints assessed regardless of sex, gender and race. No formal statistical tests were performed in this study. However, nominal P values (two-sided) were provided for the hypothesis-generating purpose of selected exploratory endpoints, without adjusting for multiplicity. A log-rank test was used in between-group comparisons for the time-to-event endpoints (PFS and DOT), and Fisher’s exact test was used in between-group comparisons for the binary endpoints (CBR, MR, etc.).

Effect on QT interval = assay: Effect on QT interval; parameters: species or system human; conditions: in vivo
Experimental: as §1

[2] = 3/4 schedule (n = 95), all grades
[3] = 5/2 schedule (n = 25), all grades

SMILES: C[C@@H]1COCCN1c1cc([C@]2(O)C[C@H]3CC[C@@H](C2)O3)c2cnn(-c3cc[nH]n3)c2n1 [camonsertib]
- Patients who discontinued due to treatment-related grade 3 anemia ([1]; 1/120, after four cycles): 0.8%
- Anemia, all grades ([1]; 3/4 schedule): 64%
- Anemia, grade 3 ([1]; 3/4 schedule): 26%
- Fatigue TRAE, grade 3 ([1]; 3/4 schedule (n = 95)): 2.1%
- Fatigue TRAE, overall ([1]; 3/4 schedule (n = 95)): 27.4%
- Neutropenia TRAE, grade 3 ([1]; 3/4 schedule (n = 95)): 10.5%
- Neutropenia TRAE, grade 4 ([1]; 3/4 schedule (n = 95)): 3.2%
- Neutropenia TRAE, overall ([1]; 3/4 schedule (n = 95)): 26.3%
- Thrombocytopenia TRAE, grade 3 ([1]; 3/4 schedule (n = 95)): 6.3%
- Thrombocytopenia TRAE, grade 4 ([1]; 3/4 schedule (n = 95)): 1.1%
- Thrombocytopenia TRAE, overall ([1]; 3/4 schedule (n = 95)): 23.2%
- Any TRAE [1, 2]: 82 (86.3) n (%)
- TRAE: Anemia [1, 2]: 61 (64.2) n (%)
- TRAE: Decreased appetite [1, 2]: 14 (14.7) n (%)
- TRAE: Diarrhea [1, 2]: 13 (13.7) n (%)
- TRAE: Dysgeusia [1, 2]: 5 (5.3) n (%)
- TRAE: Dyspnea [1, 2]: 6 (6.3) n (%)
- TRAE: Fatigue [1, 2]: 26 (27.4) n (%)
- TRAE: Nausea [1, 2]: 23 (24.2) n (%)
- TRAE: Neutrophil count decreased/neutropenia [1, 2]: 25 (26.3) n (%)
- TRAE: Platelet count decreased/thrombocytopenia [1, 2]: 22 (23.2) n (%)
- TRAE: Vomiting [1, 2]: 9 (9.5) n (%)
- TRAE: White blood cell count decreased [1, 2]: 11 (11.6) n (%)
- Any TRAE ([1]; 3/4 schedule (n = 95), grade 3): 30 (31.6) n (%)
- TRAE: Anemia ([1]; 3/4 schedule (n = 95), grade 3): 25 (26.3) n (%)
- TRAE: Decreased appetite ([1]; 3/4 schedule (n = 95), grade 3): 0 n (%)
- TRAE: Diarrhea ([1]; 3/4 schedule (n = 95), grade 3): 0 n (%)
- TRAE: Dysgeusia ([1]; 3/4 schedule (n = 95), grade 3): 0 n (%)
- TRAE: Dyspnea ([1]; 3/4 schedule (n = 95), grade 3): 0 n (%)
- TRAE: Fatigue ([1]; 3/4 schedule (n = 95), grade 3): 2 (2.1) n (%)
- TRAE: Nausea ([1]; 3/4 schedule (n = 95), grade 3): 0 n (%)
- TRAE: Neutrophil count decreased/neutropenia ([1]; 3/4 schedule (n = 95), grade 3): 10 (10.5) n (%)
- TRAE: Platelet count decreased/thrombocytopenia ([1]; 3/4 schedule (n = 95), grade 3): 6 (6.3) n (%)
- TRAE: Vomiting ([1]; 3/4 schedule (n = 95), grade 3): 0 n (%)
- TRAE: White blood cell count decreased ([1]; 3/4 schedule (n = 95), grade 3): 4 (4.2) n (%)
- Any TRAE ([1]; 3/4 schedule (n = 95), grade 4): 4 (4.2) n (%)
- TRAE: Anemia ([1]; 3/4 schedule (n = 95), grade 4): 0 n (%)
- TRAE: Decreased appetite ([1]; 3/4 schedule (n = 95), grade 4): 0 n (%)
- TRAE: Diarrhea ([1]; 3/4 schedule (n = 95), grade 4): 0 n (%)
- TRAE: Dysgeusia ([1]; 3/4 schedule (n = 95), grade 4): 0 n (%)
- TRAE: Dyspnea ([1]; 3/4 schedule (n = 95), grade 4): 0 n (%)
- TRAE: Fatigue ([1]; 3/4 schedule (n = 95), grade 4): 0 n (%)
- TRAE: Nausea ([1]; 3/4 schedule (n = 95), grade 4): 0 n (%)
- TRAE: Neutrophil count decreased/neutropenia ([1]; 3/4 schedule (n = 95), grade 4): 3 (3.2) n (%)
- TRAE: Platelet count decreased/thrombocytopenia ([1]; 3/4 schedule (n = 95), grade 4): 1 (1.1) n (%)
- TRAE: Vomiting ([1]; 3/4 schedule (n = 95), grade 4): 0 n (%)
- TRAE: White blood cell count decreased ([1]; 3/4 schedule (n = 95), grade 4): 0 n (%)
- Nausea TRAE, overall ([1]; 3/4 schedule (n = 95), all grade <3): 24.2%
- Anemia, all grades ([1]; 5/2 schedule): 80%
- Anemia, grade 3 ([1]; 5/2 schedule): 52%
- Any TRAE [1, 3]: 22 (88.0) n (%)
- TRAE: Anemia [1, 3]: 20 (80.0) n (%)
- TRAE: Decreased appetite [1, 3]: 4 (16.0) n (%)
- TRAE: Diarrhea [1, 3]: 0 n (%)
- TRAE: Dysgeusia [1, 3]: 1 (4.0) n (%)
- TRAE: Dyspnea [1, 3]: 5 (20.0) n (%)
- TRAE: Fatigue [1, 3]: 7 (28.0) n (%)
- TRAE: Nausea [1, 3]: 3 (12.0) n (%)
- TRAE: Neutrophil count decreased/neutropenia [1, 3]: 6 (24.0) n (%)
- TRAE: Platelet count decreased/thrombocytopenia [1, 3]: 7 (28.0) n (%)
- TRAE: Vomiting [1, 3]: 3 (12.0) n (%)
- TRAE: White blood cell count decreased [1, 3]: 1 (4.0) n (%)
- Any TRAE ([1]; 5/2 schedule (n = 25), grade 3): 14 (56.0) n (%)
- TRAE: Anemia ([1]; 5/2 schedule (n = 25), grade 3): 13 (52.0) n (%)
- TRAE: Decreased appetite ([1]; 5/2 schedule (n = 25), grade 3): 0 n (%)
- TRAE: Diarrhea ([1]; 5/2 schedule (n = 25), grade 3): 0 n (%)
- TRAE: Dysgeusia ([1]; 5/2 schedule (n = 25), grade 3): 0 n (%)
- TRAE: Dyspnea ([1]; 5/2 schedule (n = 25), grade 3): 0 n (%)
- TRAE: Fatigue ([1]; 5/2 schedule (n = 25), grade 3): 1 (4.0) n (%)
- TRAE: Nausea ([1]; 5/2 schedule (n = 25), grade 3): 0 n (%)
- TRAE: Neutrophil count decreased/neutropenia ([1]; 5/2 schedule (n = 25), grade 3): 3 (12.0) n (%)
- TRAE: Platelet count decreased/thrombocytopenia ([1]; 5/2 schedule (n = 25), grade 3): 2 (8.0) n (%)
- TRAE: Vomiting ([1]; 5/2 schedule (n = 25), grade 3): 0 n (%)
- TRAE: White blood cell count decreased ([1]; 5/2 schedule (n = 25), grade 3): 0 n (%)
- Any TRAE ([1]; 5/2 schedule (n = 25), grade 4): 1 (4.0) n (%)
- TRAE: Anemia ([1]; 5/2 schedule (n = 25), grade 4): 0 n (%)
- TRAE: Decreased appetite ([1]; 5/2 schedule (n = 25), grade 4): 0 n (%)
- TRAE: Diarrhea ([1]; 5/2 schedule (n = 25), grade 4): 0 n (%)
- TRAE: Dysgeusia ([1]; 5/2 schedule (n = 25), grade 4): 0 n (%)
- TRAE: Dyspnea ([1]; 5/2 schedule (n = 25), grade 4): 0 n (%)
- TRAE: Fatigue ([1]; 5/2 schedule (n = 25), grade 4): 0 n (%)
- TRAE: Nausea ([1]; 5/2 schedule (n = 25), grade 4): 0 n (%)
- TRAE: Neutrophil count decreased/neutropenia ([1]; 5/2 schedule (n = 25), grade 4): 1 (4.0) n (%)
- TRAE: Platelet count decreased/thrombocytopenia ([1]; 5/2 schedule (n = 25), grade 4): 1 (4.0) n (%)
- TRAE: Vomiting ([1]; 5/2 schedule (n = 25), grade 4): 0 n (%)
- TRAE: White blood cell count decreased ([1]; 5/2 schedule (n = 25), grade 4): 0 n (%)
- Tolerability ([1]; 120 patients): well tolerated
- Anemia TRAE of any grade ([1]; all dose levels/schedules): 67.5%
- Anemia, grade 3 (most common drug-related toxicity) ([1]; all patients): 32%
- Anemia, grade 4 ([1]; both schedules): no grade 4 anemia was observed
- Effect on QT interval (ΔQTcF) (Effect on QT interval): No effect on QT interval was observed; also recorded: do not affect
